Assay results taken from patent publication US10829458B2 (Araxes Pharma LLC, priority 2015, dated 2020).

Target: T1, KRAS G12C 1-169, his-tagged protein, GDP-loaded (Homo sapiens, UniProt P01116, G12C)
T1 construct: KRAS G12C 1-169, his-tagged protein, GDP-loaded
Test: Biochemical assay: covalent modification of KRAS G12C measured by mass spectrometry (RapidFire/TOF or Q-Exactive)
Conditions: covalent binding to KRAS G12C
Protocol: Test compounds were prepared as 10 mM stock solutions in DMSO (Fisher cat #BP-231-100). KRAS G12C 1-169, his-tagged protein, GDP-loaded was diluted to 2 μm in buffer (20 mM Hepes, 150 mM NaCl, 1 mM MgCl2). Compounds were tested for activity as follows:
Compounds were diluted to 50× final test concentration in DMSO in 96-well storage plates. Compound stock solutions were vortexed before use and observed carefully for any sign of precipitation. Dilutions were as follow: • For 100 μM final compound concentration, compounds were diluted to 5000 μM (5 μl 10 mM compound stock+5 μl DMSO and mixed well by pipetting. • For 30 μM final compound concentration, compounds were diluted to 1500 μM (3 μl 10 mM compound stock+17p DMSO) and mixed well by pipetting. • For 10 μM final compound concentration, compounds were diluted to 500 μM (2 μl 10 mM compound stock+38p DMSO) and mixed well by pipetting. 49p of the stock protein solution was added to each well of a 96-well PCR plate (Fisher cat #1423027). 1 μl of the diluted 50× compounds were added to appropriate wells in the PCR plate using 12-channel pipettor. Reactions were mixed carefully and thoroughly by pipetting up/down with a 200·1 multi-channel pipettor. The plate was sealed well with aluminum plate seal, and stored in drawer at room temperature for 30 min, 2 hour or 24 hrs. 5·1 of 2% formic acid (Fisher cat #A117) in DI H2O was then added to each well followed by mixing with a pipette. The plate was then resealed with aluminum seal and stored on dry ice until analyzed as described below.
The above described assays were analyzed by mass spectrometry according to one of the following two procedures:
The MS instrument is set to positive polarity, 2 GHz resolution, and low mass (1700) mode and allowed to equilibrate for 30 minutes. The instrument is then calibrated, switched to acquisition mode and the appropriate method loaded.
After another 30 minute equilibration time, a blank batch (i.e., buffer) is run to ensure equipment is operating properly. The samples are thawed at 37° C. for 10 minutes, briefly centrifuged, and transfer to the bench top. Wells A1 and H12 are spiked with 1 uL 500 uM internal standard peptide, and the plates centrifuged at 2000×g for 5 minutes. The method is then run and masses of each individual well recorded.
The masses (for which integration data is desired) for each well are pasted into the platemap and exported from the analysis. Masses for the internal standards are exported as well. The data at 50 ppm is extracted for the +19 charge state, and identity of well A1 is assigned using the internal standard spike and integrated. Peak data is exported as a TOF list and the above steps are repeated individually, for the +20, 21, 22, 23, 24, and 25 charge states.
The masses and peak intensities of KRAS G12C protein species were measured using a Dionex RSLCnano system (Thermo Scientific) connected to a Q Exactive Plus mass spectrometer (Thermo Scientific).
[…] of sample was each loaded onto a Aeris™ 3.6 μm WIDEPORE C4 200 Å, LC Column 50×2.1 mm column maintained at 40° C. at a flow rate of 600 μl min^−1 with […] (0.1% formic acid in acetonitrile). The liquid chromatography conditions were 20% solvent B for 1 min, 20% to 60% solvent B for 1.5 min, 60% to 90% solvent for 0.5 min, 90% solvent B for 0.2 min, 90% to 20% solvent B for 0.2 min, and then equilibrated for 1.6 min before the following sample injection. The flow rate was maintained at 600 μl min^−1 throughout the sample analysis.
The mass spectrometer was operated in profile mode at a resolution of 17500, 5 microscans, using 50 msec max injection time and an AGC target of 1e6, and a full mass range from 800-1850 m/z was recorded. The HCD trapping gas was optimized for maximum sensitivity for intact proteins. […]

| SMILES | Binding % (compounds of structure (III)) | Binding % (compounds of structure (I)) |
| --- | --- | --- |
| C=CC(=O)N1CCN(c2ncnc3c(F)c(-c4c(O)cccc4F)c(Cl)cc23)C2(CC2)C1 [III-31, 1-(4-(6-chloro-8-fluoro-7-(2-fluoro-6-hydroxy-phenyl)quinazolin-4-yl)-4,7-diazaspiro [2.5]octan-7-yl)prop-2-en-1-one] | + (+ indicates binding activity up to 50%) |  |
| C=CC(=O)N1CCN(c2nc(OCCN(CC)CC)nc3c(F)c(-c4c(O)cccc4F)c(Cl)cc23)CC1 (atropisomer, axis not shown) [Example I-88, (R)-1-(4-(6-chloro-2-(2-(diethylamino)ethoxy)-8-fluoro-7-(2-fluoro-6-hydroxyphenyl)quinazolin-4-yl)piperazin-1-yl) prop-2-en-1-one] |  | + (+ indicates binding activity up to 50%) |
| C=CC(=O)N1CCN(c2nc(OCC3CCN(CC(F)(F)F)CC3)nc3c(F)c(-c4c(O)cccc4F)c(Cl)cc23)CC1 [Example I-35, 1-(4-(6-chloro-8-fluoro-7-(2-fluoro-6-hydroxyphenyl)-2-((1-(2,2,2-trifluoroethyl)piperidin-4-yl)methoxy)quinazolin-4-yl)piperazin-1-yl)prop-2-en-1-one] |  | ++ (++ indicates binding activity from 50 to 90%) |
| C=CC(=O)N1CCN(c2nc(OCCN3CCOCC3)nc3c(F)c(-c4ccccc4C(C)C)c(Cl)cc23)CC1 [Example I-37, 1-(4-(6-chloro-8-fluoro-7-(2-isopropylphenyl)-2-(2-morpholino-ethoxy)quinazolin-4-yl)piperazin-1-yl)prop-2-en-1-one] |  | +++ (+++ indicates binding activity greater than 90%) |
| C=CC(=O)N1CCN(c2nc(OC3CCN(CC(F)(F)F)CC3)nc3c(F)c(-c4c(O)cccc4F)c(Cl)cc23)CC1 [Example I-27, 1-(4-(6-chloro-8-fluoro-7-(2-fluoro-6-hydroxyphenyl)-2-(1-(2,2,2-trifluoroethyl)piperidin-4-yloxy)quinazolin-4-yl)piperazin-1-yl)prop-2-en-1-one] |  | +++ (+++ indicates binding activity greater than 90%) |
| C=CC(=O)N1CCN(c2nc(N)nc3c(F)c(-c4c(O)cccc4F)c(Cl)cc23)CC1 [Example I-175, 1-(4-(2-amino-6-chloro-8-fluoro-7-(2-fluoro-6-hydroxyphenyl)quinazolin-4-yl)piperazin-1-yl) prop-2-en-1-one] |  | ++ (++ indicates binding activity from 50 to 90%) |
| C=CC(=O)N1CCN(c2nc(CP(C)(C)=O)nc3c(F)c(-c4c(O)cccc4F)c(Cl)cc23)CC1 [Example I-209, 1-(4-(6-chloro-2-((dimethyl-phosphoryl)methyl)-8-fluoro-7-(2-fluoro-6-hydroxyphenyl)quinazolin-4-yl)piperazin-1-yl) prop-2-en-1-one] |  | ++ (++ indicates binding activity from 50 to 90%) |
| C=CC(=O)N1CCN(c2nc(OCCn3ccnc3C)nc3c(F)c(-c4c(C)ccc5[nH]ncc45)c(Cl)cc23)CC1 [Example I-6, 1-(4-(6-chloro-8-fluoro-2-(2-(2-methyl-1H-imidazol-1-yl)ethoxy)-7-(5-methyl-1H-indazol-4-yl)quinazolin-4-yl)piperazin-1-yl)prop-2-en-1-one] |  | +++ (+++ indicates binding activity greater than 90%) |
| C=CC(=O)N1CCN(c2nc(NC3CN(C(C)C)C3)nc3c(F)c(-c4c(C)ccc5[nH]ncc45)c(Cl)cc23)CC1 [Example I-173, 1-(4-(6-chloro-8-fluoro-2-((1-isopropyl-azetidin-3-yl)amino)-7-(5-methyl-1H-indazol-4-yl)quinazolin-4-yl)piperazin-1-yl) prop-2-en-1-one] |  | + (+ indicates binding activity up to 50%) |
| C=C(F)C(=O)N1CCN(c2nc(OCCN3CCOCC3)nc3c(F)c(-c4c(O)cccc4F)c(Cl)cc23)CC1 [Example I-60, 1-(4-(6-chloro-8-fluoro-7-(2-fluoro-6-hydroxyphenyl)-2-(2-morpholino-ethoxy)quinazolin-4-yl)piperazin-1-yl)-2-fluoroprop-2-en-1-one] |  | ++ (++ indicates binding activity from 50 to 90%) |
| C=CC(=O)N1CCN(c2nc(OCc3ccnnc3)nc3c(F)c(-c4c(O)cccc4F)c(Cl)cc23)CC1 [Example I-127, 1-(4-(6-chloro-8-fluoro-7-(2-fluoro-6-hydroxyphenyl)-2-(pyridazin-4-ylmethoxy)quinazolin-4-yl)piperazin-1-yl) prop-2-en-1-one] |  | +++ (+++ indicates binding activity greater than 90%) |
| C=CC(=O)N1CCN(c2nc(NC3CCN(c4ncccn4)CC3)nc3c(F)c(-c4c(O)cccc4F)c(Cl)cc23)CC1 [Example I-190, 1-(4-(6-chloro-8-fluoro-7-(2-fluoro-6-hydroxyphenyl)-2-((1-(pyrimidin-2-yl)piperidin-4-yl)amino)quinazolin-4-yl)piperazin-1-yl) prop-2-en-1-one] |  | + (+ indicates binding activity up to 50%) |
| C=CC(=O)N1CCN(c2nc(OCC(=O)N(C)C)nc3c(F)c(-c4c(C)ccc5[nH]ncc45)c(Cl)cc23)CC1 [Example I-4, 2-(4-(4-acryloylpiperazin-1-yl)-6-chloro-8-fluoro-7-(5-methyl-1H-indazol-4-yl)quinazolin-2-yloxy)-N,N-dimethyl-acetamide] |  | ++ (++ indicates binding activity from 50 to 90%) |
| C=CC(=O)N1CCN(c2nc(CCN3CC(C)(N(C)C)C3)nc3c(F)c(-c4c(O)cccc4F)c(Cl)cc23)CC1 [Example I-198, 1-(4-(6-chloro-2-(2-(3-(dimethyl-amino)-3-methyl-azetidin-1-yl)ethyl)-8-fluoro-7-(2-fluoro-6-hydroxyphenyl)quinazolin-4-yl)piperazin-1-yl) prop-2-en-1-one] |  | ++ (++ indicates binding activity from 50 to 90%) |
| C=CC(=O)N1CCN(c2nc(OCC3CCOCC3)nc3c(F)c(-c4c(C)ccc5[nH]ncc45)c(Cl)cc23)CC1 [Example I-15, 1-(4-(6-chloro-8-fluoro-7-(5-methyl-1H-indazol-4-yl)-2-((tetrahydro-2H-pyran-4-yl)methoxy)quinazolin-4-yl)piperazin-1-yl)prop-2-en-1-one] |  | +++ (+++ indicates binding activity greater than 90%) |
| C=CC(=O)N1CCN(c2nc(OCCN3CC(F)(F)C3)nc3c(F)c(-c4c(O)cccc4F)c(Cl)cc23)CC1 [Example I-36, 1-(4-(6-chloro-2-(2-(3,3-difluoroazetidin-1-yl)ethoxy)-8-fluoro-7-(2-fluoro-6-hydroxyphenyl)quinazolin-4-yl)piperazin-1-yl) prop-2-en-1-one] |  | +++ (+++ indicates binding activity greater than 90%) |
| C=CC(=O)N1CCN(c2nc(OCCc3ccccn3)nc3c(F)c(-c4cc(O)cc5ccccc45)c(Cl)cc23)CC1 [Example I-44, 1-(4-(6-chloro-8-fluoro-7-(3-hydroxy-naphthalen-1-yl)-2-(2-(pyridin-2-yl)ethoxy)quinazolin-4-yl)piperazin-1-yl) prop-2-en-1-one] |  | +++ (+++ indicates binding activity greater than 90%) |
| C=CC(=O)N1CCN(c2nc(N3CC(COC)C3)nc3c(F)c(-c4c(C)ccc5[nH]ncc45)c(Cl)cc23)CC1 [Example I-152, 1-(4-(6-chloro-8-fluoro-2-(3-(methoxy-methyl)azetidin-1-yl)-7-(5-methyl-1H-indazol-4-yl)quinazolin-4-yl)piperazin-1-yl) prop-2-en-1-one] |  | +++ (+++ indicates binding activity greater than 90%) |
